Data as given in US10597388B2, “Pyridazinone herbicides” (FMC CORPORATION, priority 2014, dated 2020).

Legend:
Assay in all cases: Test D controlled growth environment herbicide test, pre- and postemergence
Type in all cases: in vivo
[1] = test system: Russian thistle (Salsola kali)
Method in brief: (§1)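 Species sown in silt loam and sprayed preemergence, or grown in peat-based medium to 2–18 cm (1- to 4-leaf stage) and sprayed postemergence, with compounds in non-phytotoxic solvent plus surfactant. Visual injury scored versus controls after 14–21 d in a controlled environment, 0 (no effect) to 100 (complete control).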

[2] = test system: barley, spring (spring barley, Hordeum vulgare)
Method in brief: as §1

[3] = test system: buckwheat, wild (wild buckwheat, Polygonum convolvulus)
Method in brief: as §1

[4] = test system: canarygrass (Phalaris minor)
Method in brief: as §1

[5] = test system: deadnettle (henbit deadnettle, Lamium amplexicaule)
Method in brief: as §1

[6] = test system: field poppy (Papaver rhoeas)
Method in brief: as §1

[7] = test system: oat, wild (wild oat, Avena fatua)
Method in brief: as §1

[8] = test system: oilseed rape (Brassica napus)
Method in brief: as §1

[9] = test system: radish, wild (wild radish, Raphanus raphanistrum)
Method in brief: as §1

[10] = test system: ryegrass, Italian (Italian ryegrass, Lolium multiflorum)
Method in brief: as §1

[11] = test system: speedwell (bird's-eye speedwell, Veronica persica)
Method in brief: as §1

[12] = test system: wheat, spring (spring wheat, Triticum aestivum)
Method in brief: as §1

[13] = test system: windgrass (Apera spica-venti)
Method in brief: as §1

[14] = Postemergence, 31 g ai/ha, scale 0 to 100 (0 no effect, 100 complete control)
[15] = Postemergence, 125 g ai/ha, visual rating on scale 0 (no effect) to 100 (complete control), 14 to 21 d
[16] = Postemergence, 250 g ai/ha, scale 0 to 100 (0 no effect, 100 complete control)
[17] = Preemergence, 62 g ai/ha, scale 0 to 100 (0 no effect, 100 complete control)
[18] = Preemergence, 125 g ai/ha, scale 0 to 100 (0 no effect, 100 complete control)
[19] = Preemergence, 250 g ai/ha, scale 0 to 100, 0 no effect, 100 complete control
[20] = postemergence, 62 g ai/ha, scale 0 to 100, 0 no effect, 100 complete control

Cc1ccc2sc(Br)c(-c3c(O)c(C)nn(C)c3=O)c2c1 [Compound 79]
Russian Thistle plant response rating [1, 14]: 50
Plant response rating, Russian Thistle [1, 15]: 55
Plant response rating, Russian Thistle [1, 16]: 65
Plant response rating (scale of 0 to 100), Russian Thistle ([1]; Preemergence, 31 g ai/ha): 0
Plant response rating, Russian Thistle [1, 17]: 70
Plant response rating, Russian Thistle [1, 18]: 75
Plant response rating, Russian Thistle [1, 19]: 100
Plant response rating, Russian Thistle [1, 20]: 55
Barley, Spring plant response rating [2, 14]: 0
Plant response rating, Barley, Spring [2, 15]: 5
Plant response rating, Barley, Spring [2, 16]: 10
Plant response rating (scale of 0 to 100), Barley, Spring ([2]; Preemergence, 31 g ai/ha): 0
Plant response rating, Barley, Spring [2, 17]: 0
Plant response rating, Barley, Spring [2, 18]: 0
Plant response rating, Barley, Spring [2, 19]: 0
Plant response rating, Barley, Spring [2, 20]: 5
Buckwheat, Wild plant response rating [3, 14]: 70
Plant response rating, Buckwheat, Wild [3, 15]: 100
Plant response rating, Buckwheat, Wild [3, 16]: 100
Plant response rating (scale of 0 to 100), Buckwheat, Wild ([3]; Preemergence, 31 g ai/ha): 0
Plant response rating, Buckwheat, Wild [3, 17]: 90
Plant response rating, Buckwheat, Wild [3, 18]: 25
Plant response rating, Buckwheat, Wild [3, 19]: 100
Plant response rating, Buckwheat, Wild [3, 20]: 100
Canarygrass plant response rating [4, 14]: 5
Plant response rating, Canarygrass [4, 15]: 40
Plant response rating, Canarygrass [4, 16]: 45
Plant response rating (scale of 0 to 100), Canarygrass ([4]; Preemergence, 31 g ai/ha): 45
Plant response rating, Canarygrass [4, 17]: 60
Plant response rating, Canarygrass [4, 18]: 75
Plant response rating, Canarygrass [4, 19]: 85
Plant response rating, Canarygrass [4, 20]: 20
Deadnettle plant response rating [5, 14]: 5
Plant response rating, Deadnettle [5, 15]: 20
Plant response rating, Deadnettle [5, 16]: 40
Plant response rating (scale of 0 to 100), Deadnettle ([5]; Preemergence, 31 g ai/ha): 0
Plant response rating, Deadnettle [5, 17]: 10
Plant response rating, Deadnettle [5, 18]: 100
Plant response rating, Deadnettle [5, 19]: 90
Plant response rating, Deadnettle [5, 20]: 15
Field Poppy plant response rating [6, 14]: 75
Plant response rating, Field Poppy [6, 15]: 95
Plant response rating, Field Poppy [6, 16]: 98
Plant response rating (scale of 0 to 100), Field Poppy ([6]; Preemergence, 31 g ai/ha): 100
Plant response rating, Field Poppy [6, 17]: 100
Plant response rating, Field Poppy [6, 18]: 100
Plant response rating, Field Poppy [6, 19]: 100
Plant response rating, Field Poppy [6, 20]: 85
Oat, Wild plant response rating [7, 14]: 70
Plant response rating, Oat, Wild [7, 15]: 80
Plant response rating, Oat, Wild [7, 16]: 85
Plant response rating (scale of 0 to 100), Oat, Wild ([7]; Preemergence, 31 g ai/ha): 80
Plant response rating, Oat, Wild [7, 17]: 80
Plant response rating, Oat, Wild [7, 18]: 85
Plant response rating, Oat, Wild [7, 19]: 90
Plant response rating, Oat, Wild [7, 20]: 70
Oilseed Rape plant response rating [8, 14]: 0
Plant response rating, Oilseed Rape [8, 15]: 20
Plant response rating, Oilseed Rape [8, 16]: 30
Plant response rating (scale of 0 to 100), Oilseed Rape ([8]; Preemergence, 31 g ai/ha): 25
Plant response rating, Oilseed Rape [8, 17]: 35
Plant response rating, Oilseed Rape [8, 18]: 40
Plant response rating, Oilseed Rape [8, 19]: 35
Plant response rating, Oilseed Rape [8, 20]: 5
Radish, Wild plant response rating [9, 14]: 0
Plant response rating, Radish, Wild [9, 15]: 0
Plant response rating, Radish, Wild [9, 16]: 65
Plant response rating (scale of 0 to 100), Radish, Wild ([9]; Preemergence, 31 g ai/ha): 25
Plant response rating, Radish, Wild [9, 17]: 25
Plant response rating, Radish, Wild [9, 18]: 45
Plant response rating, Radish, Wild [9, 19]: 55
Plant response rating, Radish, Wild [9, 20]: 0
Ryegrass, Italian plant response rating [10, 14]: 70
Plant response rating, Ryegrass, Italian [10, 15]: 85
Plant response rating, Ryegrass, Italian [10, 16]: 90
Plant response rating (scale of 0 to 100), Ryegrass, Italian ([10]; Preemergence, 31 g ai/ha): 80
Plant response rating, Ryegrass, Italian [10, 17]: 85
Plant response rating, Ryegrass, Italian [10, 18]: 90
Plant response rating, Ryegrass, Italian [10, 19]: 100
Plant response rating, Ryegrass, Italian [10, 20]: 75
Speedwell plant response rating [11, 14]: 25
Plant response rating, Speedwell [11, 15]: 35
Plant response rating, Speedwell [11, 16]: 65
Plant response rating, Speedwell [11, 20]: 30
Wheat, Spring plant response rating [12, 14]: 0
Plant response rating, Wheat, Spring [12, 15]: 0
Plant response rating, Wheat, Spring [12, 16]: 5
Plant response rating (scale of 0 to 100), Wheat, Spring ([12]; Preemergence, 31 g ai/ha): 0
Plant response rating, Wheat, Spring [12, 17]: 0
Plant response rating, Wheat, Spring [12, 18]: 0
Plant response rating, Wheat, Spring [12, 19]: 0
Plant response rating, Wheat, Spring [12, 20]: 0
Windgrass plant response rating [13, 14]: 15
Plant response rating, Windgrass [13, 15]: 35
Plant response rating, Windgrass [13, 16]: 65
Plant response rating (scale of 0 to 100), Windgrass ([13]; Preemergence, 31 g ai/ha): 25
Plant response rating, Windgrass [13, 17]: 40
Plant response rating, Windgrass [13, 18]: 50
Plant response rating, Windgrass [13, 19]: 80
Plant response rating, Windgrass [13, 20]: 20
